Data published in patent publication US20130197480A1, “METHODS AND SYSTEMS FOR DELIVERY OF LIVE CELLS” (PALOMAR MEDICAL TECHNOLOGIES, INC., priority 2012, published 2013).

System: Human fibroblast cells in culture
Test: Common laser pre-treatment compounds incubated 45 min with cultured human fibroblasts, visual inspection
Conditions: for Viability/Inspection 24 hrs / Viability/Inspector 1 week: cells rinsed, fresh media; for Viability/Inspection 24 hrs: observed 24 hours post exposure; for Viability/Inspector 1 week: observed one week post exposure; for Viability/nspection 45 min: visual inspection after 45 minutes incubation with compound
Description: AG07999 human skin fibroblasts (HSF; Coriell, Camden, N.J.) were grown to confluence in minimal essential media (MEM; Gibco, Grand Island, N.Y.) supplemented with 10% FBS (Hyclone, Logan, Utah), 20 mM L-glutamine, and 20 mM Glutamax™ (Gibco). Cells were maintained in an incubator at 37° C. and 5% CO2 and serially passaged with trypsin digestion at a 1:3 ratio as needed.
This example describes in vitro (in silico) testing of compounds added to human fibroblast cell cultures to determine any detrimental effects to the cells.
The remaining compositions and mixtures were tested as they are expected to be common treatments that might be used for numbing or cleansing of skin prior to laser treatment and cell delivery, or coagulation compounds, that are available in most physician offices. […] In addition, the delivery vehicle for SRF and lidocaine were tested to determine which vehicle (cream, lotion, petrolatum, lipoderm) was least destructive to the cells.

CNC[C@H](O)c1ccc(O)c(O)c1 [Epinephrine 1:100,000, Epinephrine]
Viability/Inspection 24 hrs: Normal | Viability/Inspector 1 week: Confluent/overgrown | Viability/nspection 45 min: Slight change in morphology,

CNC[C@H](O)c1ccc(O)c(O)c1 [Epinephrine 1:10,000,000, Epinephrine]
Viability/Inspection 24 hrs: Normal | Viability/Inspector 1 week: Confluent/overgrown | Viability/nspection 45 min: Normal

CCN(CC)CC(=O)Nc1c(C)cccc1C [Lidocaine 0.5%, Lidocaine]
Viability/Inspection 24 hrs: Normal | Viability/Inspector 1 week: Confluent/overgrown | Viability/nspection 45 min: Normal
